Series [1] in a line: Thermal stability by DSC and TG/DSC analysis.
Description: DSC analyses were carried out by using a SETARAM 141 Differential Scanning Calorimeter (SETARAM, 69300 Caluire, France). No purge gas was used. The reference material was an empty aluminum pan without cap. The samples were weighed in open aluminum pans, then placed in the analyzer. The analyses were performed within various temperature ranges using a 2°.min^−1 heating rate. SETARAM ACQUISITION Module software (v. 1.4) was used as control software and data processing was performed by using the SETARAM DATA PROCESSING Module software (v. 1.39).
TG/DSC measurements were carried out by using a NETZSCH STA 449C Jupiter Thermogravimetric Analyzer (NETZSCH, D-95100 Selb, Germany) equipped with a low temperature furnace. The purge gas used was helium (gas flow=60 mL/min) and the reference material was an empty aluminum pan without cap. The samples were weighed in open aluminum pans, then placed in the analyzer. The analyses were performed within various temperature ranges using a 2°.min^−1 heating rate. PROTEUS software was used for the acquisition and data processing (v. 4.7.0).
The nature of series [2]: DVS hygroscopicity and moisture measurement, second procedure. The format is physicochemical. To be noted: 22° C. How it is done: Moisture sorption isotherms of the crystalline phases were obtained by using a DVS-1 automated water sorption analyzer (Surface Measurements Systems, Alperton, Middlesex, United Kingdom). The reference material was an empty glass pan and the total gas flow was 200 sccm·min^−1 (Standard Cubic Centimeters per minute). Temperature of analysis was 22° C. For each measurement, precisely ca. 15 mg of the sample were weighed in a glass pan beforehand allowed for the tare, then placed in the analyzer.
As a first stage, dry nitrogen (0% R.H) was applied until constant weight of the sample in order to eliminate adsorbed or absorbed water (potential dehydration). Then, mass variations were recorded while R.H. was increased by steps of 10% R.H. The automated analyzer was allowed to start the following step as soon as the mass variation of the sample was less than 5.10^−4 mg·min^−1. The upper limit was adjusted below the deliquescence of the compound and never exceeded 98% R.H. This second stage was afterward followed by a stepped decrease of R.H. down to 0% R.H. This overall procedure constitutes a ‘Full cycle’ analysis. Several successive full cycles can be applied to the same sample.
DVSWin (v 2.18) was used as control and data collection software whereas data processing was performed by using DVS Standard Analysis Suite (v 4.3).
Further parameters used in DVS procedures are as follows: • Protocole Dynamic Vapour Sorption/Appareil ‘Surface Measurements Systems • Automated Water Sorption Analyser’/model: DVS-1 • Analysis method: • step mode, • Temperature: […] • number of steps, • step dm/dt<0.0005 (mg/min) • First stage R.H.=0% • Last Stage R.H.=98% • Half cycle or Full cycle (or several successive full cycles) • dm/dt window: 5 • Minimum Stage: 20 min • Maximum Stage: 120 min • Total Gaz Flow: 200 • Nitrogen: 200 Bars, H2O<3 ppm, O2<2 ppm, Ref. Azote N50 B50*0 • Initial sample weight: • Software—data collection and data processing • DVSWin v2.18 (control software), • DVS Standard Analysis Suite v4.3 (analysis software).]

Series [3] in a line: Chemical stability on storage, evaluated by HPAEC analysis.
Series [4] in a line: DVS hygroscopicity and moisture measurement, first procedure. The format is physicochemical. How it is done:
Moisture sorption isotherms of amorphous BrHPP was obtained by using an automated water sorption analyzer. Temperature of analysis was 20° C. For each measurement, precisely ca. 25 mg of the sample were weighed in a pan beforehand allowed for the tare, then placed in the analyzer.
After a stabilization stage at 0% R.H. (R.H. stands for Relative Humidity), mass variations were recorded while R.H. was increased by steps of 20% R.H. The upper limit was adjusted to 80% R.H. This second stage was afterward followed by a stepped decrease of R.H. down to 0% R.H. This overall procedure constitutes a ‘Full cycle’ analysis. Several successive full cycles can be applied to the same sample.

Counter-ions that a name gives are not always drawn. Where only a bound is given, the exact number is not on record here.

For the compound `CC(O)(CBr)CCOP(=O)(O)OP(=O)(O)O` (racemic) [BrHPP benzathin salt (Rac)-Mix-I, 3-(bromomethyl)-3-butanol-1-yl diphosphoric acid, N,N′-dibenzylethylenediammonium salts], in series [1] (DSC, non solvated crystalline form), the “temperature of the fusion-degradation event (thermal stability)” value was “above 146 °C”. In addition, the “reversible and reproducible mass variation, (de)hydration (Rac)-Mix-I / (Rac)-Mix-III” value in series [2] (R.H. in the range of 50%-70%) is 6.1%. Further, the cumulated mass variations was under 0.4% in series [2] (between 0% and 50% R.H.); under 0.2% in series [2] (high relative humidity (up to 90%)).
Regarding `CC(O)(CBr)CCOP(=O)(O)OP(=O)(O)O` (racemic) [BrHPP sodium salt, reference compound], the degradation on storage in series [3] (3 months, room temperature (about 25° C.), in contact with ambient atmosphere) was determined as 50%. Besides, the “thermal behaviour in TG/DSC analysis” value in series [1] (fluctuations of DSC signal and continuous mass loss, even for temperatures close to ambient) was “undergoes chemical degradations”. The “sensitivity to atmospheric water” value in series [4] (even for low R.H.) is listed as “very sensitive to atmospheric water”. In addition, in series [4] (high relative humidities (≧80% R.H.), 20° C., mass not stabilized after 2300 minutes), the deliquescence entry was “becomes deliquescent”.
Consider `CC(O)(CBr)CCOP(=O)(O)OP(=O)(O)O` (stereo not shown) [3-(bromomethyl)-3-butanol-1-yl diphosphoric acid, diquininium salts], for which the “anionic purity of the sample over the storage period” value in series [3] (glass vial, room temperature (20-25° C.), ambient atmosphere (50-70% RH), at least 5 months, HPAEC) was 99.5%±0.2%. Further, in series [3] (stored in a glass vial at room temperature (20-25° C.) and ambient atmosphere (50-70% Relative Humidity)), the “period over which the compound was found to be stable” value is “at least 5 months”.

These data come from patent publication US20080300222A1, “Phosphoantigen Salts Of Organic Bases And Methods For Their Crystallization” (Innate Pharma, priority 2005, published 2008).
